The assay addresses T1, 5-HT1A (Homo sapiens, UniProt P08908).
T1 construct: expressed in transfected cells; host or cells: HEK-293 cells
T1 sequence (P08908 1-422): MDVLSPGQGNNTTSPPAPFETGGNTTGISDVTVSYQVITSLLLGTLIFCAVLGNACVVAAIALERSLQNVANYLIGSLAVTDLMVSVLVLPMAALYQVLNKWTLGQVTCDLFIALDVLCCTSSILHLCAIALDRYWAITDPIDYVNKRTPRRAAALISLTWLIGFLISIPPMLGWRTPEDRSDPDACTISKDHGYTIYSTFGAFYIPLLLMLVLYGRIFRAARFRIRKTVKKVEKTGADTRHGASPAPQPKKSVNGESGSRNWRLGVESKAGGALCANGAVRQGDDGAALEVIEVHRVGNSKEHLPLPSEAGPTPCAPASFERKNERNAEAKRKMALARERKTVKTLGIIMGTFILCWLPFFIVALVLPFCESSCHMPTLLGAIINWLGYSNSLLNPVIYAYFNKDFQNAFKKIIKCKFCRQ
As to the kind of experiment: In vitro radioligand binding assay, 5-HT1A, [3H]8-OH-DPAT. Details: concentration or dose not given beside the values. To be noted: human recombinant (HEK-293 cells). Here is the method:
Certain compounds were tested by in vitro binding assays using standard procedures. […] These receptors and assays are well known to those skilled in the art, as exemplified by the following: Abramovitz, M. et al. (2000), Biochem. Biophys. Acta., 1483: 285-293 (EP4, IP (PGI2)); Aharony, D. et al. (1993), Mol. Pharmacol., 44: 356-363 (NK2); Ardati, A. et al. (1997), Mol. Pharmacol., 51: 816-824 (NOP (ORL1)); Bignon, E. et al. (1999), J. Pharmacol. Exp. Ther. 289: 742-751 (CCK1 (CCKA)); Bloomquist, B. T. et al. (1998), Biochem. Biophys. Res. Commun., 243: 474-479 (GAL2); Brockhaus, M. et al. (1990), Proc. Natl. Acad. Sci. U.S.A., 87: 3127-3131 (TNF-α); Brown, G. B. (1986), J. Neurosci., 6: 2064-2070 (Na+ channel (site 2)); Buchan, K. W. et al. (1994), Brit. J. Pharmacol., 112: 1251-1257 (ETA); Cesura, A. M. et al. (1990), Mol. Pharmacol., 37: 358-366 (MAO-A); Choi, D. S. et al. (1994), FEBS Lett., 352: 393-399 (5-HT2B); Clark, A. F. et al. (1996), Invest. Ophtalmol. Vis. Sci., 37: 805-813 (GR); Couvineau, A. et al. (1985), Biochem. J., 231: 139-143 (VPAC1 (VIP1)); Dorje, F. et al. (1991), J. Pharmacol. Exp. Ther., 256: 727-733 (M1, M2, M3, M4); Ferry, G. et al. (2001), Eur. J. Pharmacol., 417: 77-89 (PPARγ); Fuchs, S. et al. (2001), Mol. Med., 7: 115-124 (ETB); Fuhlendorff, J. et al. (1990), Proc. Natl. Acad. Sci. U.S.A., 87: 182-186 (Y2); Ganapathy M E. et al. (1999), J. Pharmacol. Exp. Ther., 289: 251-260 (sigma (non-selective)); Gopalakrishnan, M. et al. (1996), J. Pharmacol. Exp. Ther., 276: 289-297 (N neuronal α4β2); Greengrass, P. and Bremner, R. (1979), Eur. J. Pharmacol., 55: 323-326 (α1 (non-selective)); Grandy, D. K. et al. (1989), Proc. Natl. Acad. Sci. U.S.A., 86: 9762-9766 (D25); Guard, S. et al. (1993), Eur. J. Pharmacol., 240:177-184 (BB (non-selective)); Heuillet, E. et al. (1993), J. Neurochem., 60: 868-876 (NK1, P2X); Hope, A. G. et al. (1996), Brit. J. Pharmacol., 118: 1237-1245 (5-HT3); Hoyer, D. et al. (1985), Eur. J. Pharmacol., 118: 1-12 (5-HT1B); Hugues, M. et al. (1982), J. Biol. Chem., 257: 2762-2769 (5-HT2A, SKCa channel); Joseph, S. S. et al. (2004), Naun.-Sch. Arch. Pharm., 369: 525-532 (β2); Le, M. T. et al. (2005), Eur. J. Pharmacol., 513: 35-45 (AT1); Le Fur, G. et al. (1983), Life Sci., 33: 449-457) (BZD (peripheral); Lee, Y. M. et al. (1993), J. Biol. Chem., 268: 8164-8169 (CCK2 (CCKB)); Leurs, R. et al. (1994), Brit. J. Pharmacol., 112: 847-854 (H2); Levin, M. C. et al. (2002), J. Biol. Chem., 277: 30429-30435 (11); Lewin, A. H. et al. (1989), Mol. Pharmacol., 35: 189-194 (Cl− channel (GABA-gated)); Lukas, R. J. (1986), J. Neurochem., 46: 1936-1941 (N muscle-type); Luthin, D. R. et al. (1995), Mol. Pharmacol., 47: 307-313; (A2A); Mackenzie, R. G. et al. (1994), Eur. J. Pharmacol., 266: 79-85 (D3); Mulheron, J. G. et al. (1994), J. Biol. Chem., 269: 12954-12962 (5-HT1A); Meng, F. et al. (1993), Proc. Natl. Acad. Sci. U.S.A., 90: 9954-9958 (κ (KOP)); Monsma, F. J. et al. (1993), Mol. Pharmacol., 43: 320-327 (5-HT6); Neote, K. et al. (1993), Cell, 72: 415-425 (CCR1); Pacholczyk, T. et al. (1991), Nature, 350: 350-354 (sst (non-selective, norepinephrine transporter)); Peralta, E. G. et al. (1987), Embo. J., 6: 3923-3929 (M3); Pristupa, Z. B. et al. (1994), Mol. Pharmacol., 45: 125-135 (dopamine transporter); Pruneau, D. et al. (1998), Brit. J. Pharmacol., 125: 365-372 (B2); Rees, S. et al. (1994), FEBS Lett., 355: 242-246 (5-HT5a); Reynolds, I. J. et al. (1986), J. Pharmacol. Exp. Ther., 237: 731-738 (Ca2+ channel (L, verapamil site)); Rinaldi-Carmona, M. et al. (1996), J. Pharmacol. Exp. Ther., 278: 871-878 (CB1); Salvatore, C. A. et al. (1993), Proc. Natl. Acad. Sci. U.S.A., 90: 10365-10369 (A3); Sarau, H. M. et al. (1997), J. Pharmacol. Exp. Ther., 281: 1303-1311 (NK3); Schioth, H. B. et al. (1997), Neuropeptides, 31: 565-571 (MC4); Sharples, C. […]

The text below walks through data of US10336732B2, “1-heterocyclyl isochromanyl compounds and analogs for treating CNS disorders” (Sunovion Pharmaceuticals Inc., priority 2015, dated 2019).

Take `Fc1cccc2c1[C@H]([C@@H]1CCCN1)OCC2` [Compound I-1, (S)-2-((R)-8-fluoroisochroman-1-yl)pyrrolidine]: the “5HT1a percent inhibition of specific binding” value amounted to 79%.
The result for `Fc1ccc2c(c1)[C@H]([C@@H]1CCCN1)OCC2` [Compound I-5, (2S)-2-((R)-7-fluoroisochroman-1-yl)pyrrolidine] reads 52%.
The result for `Fc1ccc2c(c1)CCO[C@H]2[C@@H]1CCCN1` [Compound I-9, (S)-2-((R)-6-fluoroisochroman-1-yl)pyrrolidine] reads 77%; that for `Clc1ccc2c(c1)[C@H]([C@@H]1CCCN1)OCC2` [Compound I-29, (S)-2-((R)-7-chloroisochroman-1-yl)pyrrolidine], 71%.
The result for `Fc1cccc2c1[C@H]([C@@H]1CCN1)OCC2` [Compound I-83, (S)-2-((R)-8-fluoroisochroman-1-yl)azetidine] reads 87%; that for `Fc1ccc2c(c1)CCO[C@H]2[C@@H]1CCN1` [Compound I-90, (S)-2-((R)-6-fluoroisochroman-1-yl)azetidine], 64%.
